What is called IC50 is the point on the concentration scale where inhibition reaches its midpoint.

Structures are written as SMILES. Structures can show the parent of a compound that is named as a salt.

Consider four compounds from US20210145771A1, “N-(3-(2-(4-CHLOROPHENOXY)ACETAMIDO)BICYCLO[1.1.1] PENTAN-1-YL)-2-CYCLOBUTANE-1- CARBOXAMIDE DERIVATIVES AND RELATED COMPOUNDS AS ATF4 INHIBITORS FOR TREATING CANCER AND OTHER DISEASES” (GlaxoSmithKline Intellectual Property Development Limited, priority 2017, published 2021).

The subject of this assay is ATF4 pathway. As to the kind of experiment: ATF4 Cell Based Assay (ATF4 reporter assay, NanoLuc luciferase). To be noted: SH-SY5Y-ATF4-NanoLuc cells challenged with Thapsigargin for 14-18 hours; average of two or more experimental runs; read-out: average ATF4 pathway inhibitory activity (IC50). The source says: The ATF4 reporter assay measures the effect of Thapsigargin induced cellular stress on ATF4 expression. For this reporter assay, a stable cell line was created by transfecting SH-SY5Y cells with a plasmid containing the NanoLuc® luciferase gene fused to the 5′-UTR of ATF4, under the control of the CMV promoter. The ATF4 5′-UTR contains two open reading frames which mediate the cellular stress-dependent translation of the reporter gene. Clones stably expressing the reporter construct were isolated and selected based on the luminescence response to thapsigargin and inhibition of this signal by test compounds. Briefly, SH-SY5Y-ATF4-NanoLuc cells were challenged with Thapsigargin for 14-18 hours to determine the stress effect with or without test compounds.
Cells were propagated in growth media consisting of 90% DMEM F12 (InVitrogen #11320-033), 10% Fetal Bovine Serum (Gibco #10438-026), 5 mM Glutamax (Gibco #35050-061), 5 mM Hepes, (Gibco #15630-080), and 0.5 mg/ml Geneticin (Gibco #10131-027). Cells were prepared for the assay by removing all media from cells, washing the plated cells with phosphate buffered saline, and detached by adding a solution comprised of 10% Tryple express solution (InVitrogen12604-021) and 90% enzyme-free cell dissociation buffer HANKS base (Gibco 13150-016). The trypsin was deactivated by adding assay media comprised of 90% phenol-red free DMEM F12 (InVitrogen, 11039), 10% Fetal Bovine Serum (Gibco #10438-026), (5 mM Glutamax (Gibco #35050-061), 5 mM Hepes, (Gibco #15630-080), and 0.5 mg/ml Geneticin (Gibco #10131-027). Suspended cells were spun down at 300 g for 5 min, the supernatant was removed and the cell pellet was suspended in warm media (30-37° C.) comprised as above but without 10% Fetal Bovine Serum to a concentration of 1e6 cells/ml.
Assay plates were prepared by adding 250 nL of compound stock solution in 100% DMSO to each well, followed by dispensing 20 microliters/well cell suspension to deliver 15-20 k cell/well. Cells were incubated for 1 hour at 37° C. […]
The measurement of luciferase produced by the ATF4 constructs was measured as follows. Aliquots of the Nano-Glo reagent (Nano-Glo® Luciferase Assay Substrate, Promega, N113, Nano-Glo® Luciferase Assay Buffer, Promega, N112 (parts of Nano-Glo® Luciferase Assay System, N1150) were brought to room temperature, the substrate and buffer were mixed according to manufacturer's instructions. The cell plates were equilibrated to room temperature. 25 microliters/well of the mixed Nano-Glo reagent were dispensed into assay wells and pulse spun to settle contents and the plate was sealed with film. The plates were incubated at room temperature for 1 hour before detecting luminescence on an EnVision® plate reader.
On the technique in general: Reporter assays use an easily measured gene product as a stand-in for the process of interest.

As for `Cc1ccc(OCC(=O)NC23CC(NC(=O)COC4(C)CC4)(C2)C3)cc1` [Example 20, 2-(1-methylcyclopropoxy)-N-(3-(2-(p-tolyloxy)acetamido)bicyclo[1.1.1]pentan-1-yl)acetamide], the IC50 is 6.32 µM. For the compound `O=C(COc1ccc(Cl)cc1)NC12CC(NC(=O)C3CCCO3)(C1)C2` (stereo not shown) [Example 32, N-(3-(2-(4-chlorophenoxy)acetamido)bicyclo[1.1.1]pentan-1-yl)tetrahydrofuranyl-2-carboxamide], the IC50 is 4.76 µM. Regarding `O=C(COc1ccc(Cl)cc1)NC12CC(NC(=O)C3CCC3)(C1)C2` [Example 34, N-(3-(2-(4-chlorophenoxy)acetamido)bicyclo[1.1.1]pentan-1-yl)cyclobutanecarboxamide], the IC50 is 3.27 µM.

As to `O=C(COc1ccc(Cl)cc1)NC12CC(NC(=O)C3CCCN3)(C1)C2` (stereo not shown) [Example 53, N-(3-(2-(4-chlorophenoxy)acetamido)bicyclo[1.1.1]pentan-1-yl)pyrrolidinyl-2-carboxamide hydrochloride], the IC50 is 3.36 µM.
